# Assay results as given in ChEMBL document CHEMBL1201862, “PubChem BioAssay data set” (2004).
#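 How tested: cells in 96-well plates exposed to compound for 48 hours at five concentrations. The concentration for 50% growth inhibition is given as GI50.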 The source made the active and inactive calls. No stated cut-off is given here; in the data, active = GI50 up to about 1.1 µM and inactive = higher.
# How the values were obtained:
# Test in all cases: NCI tumour cell line growth inhibition, 48 h
# NCI-H226 = system: NCI-H226
# NCI/ADR-RES = system: NCI/ADR-RES
# K562 = system: K562
# DU-145 = system: DU-145
# SF-539 = system: SF-539
# SK-MEL-28 = system: SK-MEL-28
# HCT-116 = system: HCT-116
# RXF 393 = system: RXF 393
# OVCAR-8 = system: OVCAR-8
# RPMI-8226 = system: RPMI-8226
# NCI-H23 = system: NCI-H23
# OVCAR-5 = system: OVCAR-5
# Malme-3M = system: Malme-3M
# MOLT-4 = system: MOLT-4
# HCC 2998 = system: HCC 2998
# A549 = system: A549
# HL-60 = system: HL-60
# UACC-62 = system: UACC-62
# SNB-19 = system: SNB-19
# MCF7 = system: MCF7
Structure (SMILES),GI50 (NCI-H226),GI50 (NCI/ADR-RES),GI50 (K562),GI50 (DU-145),GI50 (SF-539),GI50 (SK-MEL-28),GI50 (HCT-116),GI50 (RXF 393),GI50 (OVCAR-8),GI50 (RPMI-8226),GI50 (NCI-H23),GI50 (OVCAR-5),GI50 (Malme-3M),GI50 (MOLT-4),GI50 (HCC 2998),GI50 (A549),GI50 (HL-60),GI50 (UACC-62),GI50 (SNB-19),GI50 (MCF7)
CN(C)c1ccc(/N=N\c2cccc3ccoc23)cc1,> 74.6 µM (inactive),43.1 µM (inactive),44.8 µM (inactive),> 100 µM (inactive),> 100 µM (inactive),> 100 µM (inactive),69.2 µM (inactive),> 80.9 µM (inactive),> 78 µM (inactive),52.2 µM (inactive),> 68.7 µM (inactive),> 100 µM (inactive),> 100 µM (inactive),17.1 µM (inactive),60.8 µM (inactive),> 71.9 µM (inactive),23.8 µM (inactive),> 100 µM (inactive),> 100 µM (inactive),
CC(C)(Br)C(Br)CCC1(C(Br)CBr)CO1 (stereo not drawn),> 10 µM (inactive),,> 10 µM (inactive),> 10 µM (inactive),> 10 µM (inactive),> 10 µM (inactive),> 10 µM (inactive),> 10 µM (inactive),> 10 µM (inactive),> 10 µM (inactive),> 10 µM (inactive),> 10 µM (inactive),,> 10 µM (inactive),> 10 µM (inactive),> 10 µM (inactive),> 10 µM (inactive),> 10 µM (inactive),> 10 µM (inactive),> 10 µM (inactive)
O=c1[nH]c(=O)n(C2CC(O)C(CO)O2)cc1OCCc1ccccc1 (stereo not drawn),> 100 µM (inactive),> 100 µM (inactive),> 100 µM (inactive),> 100 µM (inactive),,> 100 µM (inactive),> 100 µM (inactive),> 100 µM (inactive),> 100 µM (inactive),> 100 µM (inactive),> 100 µM (inactive),> 100 µM (inactive),> 100 µM (inactive),> 100 µM (inactive),,> 100 µM (inactive),> 100 µM (inactive),> 100 µM (inactive),> 100 µM (inactive),> 100 µM (inactive)
N#Cc1cc(C#N)c(Cl)nc1N,> 10 µM (inactive),> 10 µM (inactive),7.53 µM (inactive),,> 10 µM (inactive),> 10 µM (inactive),> 10 µM (inactive),> 10 µM (inactive),> 10 µM (inactive),> 10 µM (inactive),> 10 µM (inactive),,> 10 µM (inactive),> 10 µM (inactive),> 10 µM (inactive),> 10 µM (inactive),3.48 µM (inactive),> 10 µM (inactive),> 10 µM (inactive),> 10 µM (inactive)
ClC(Cl)=C1C(=C(Cl)Cl)C(Cl)(Cl)C1(Cl)Cl,,,0.443 µM (active),10.7 µM (inactive),2.34 µM (inactive),1.44 µM (inactive),1.36 µM (inactive),1.45 µM (inactive),1.49 µM (inactive),0.558 µM (active),1.04 µM (active),2.64 µM (inactive),2.42 µM (inactive),0.126 µM (active),4.78 µM (inactive),9.51 µM (inactive),0.625 µM (active),1.95 µM (inactive),12.5 µM (inactive),4.47 µM (inactive)
O=C(Nc1nnc(-c2ccccc2)o1)C(SC(=S)N1CCOCC1)c1ccccc1 (stereo not drawn),34.4 µM (inactive),14.6 µM (inactive),19.5 µM (inactive),37.2 µM (inactive),33.3 µM (inactive),46.9 µM (inactive),22.5 µM (inactive),41.9 µM (inactive),31.8 µM (inactive),22.6 µM (inactive),18.9 µM (inactive),25.6 µM (inactive),55.6 µM (inactive),7.98 µM (inactive),,22.6 µM (inactive),12.3 µM (inactive),,40.1 µM (inactive),27.1 µM (inactive)
CO/C(N)=C(C#N)/N=C/c1ccc2ccccc2c1,> 100 µM (inactive),13 µM (inactive),4.72 µM (inactive),> 100 µM (inactive),,> 100 µM (inactive),76.2 µM (inactive),> 100 µM (inactive),72.3 µM (inactive),17.1 µM (inactive),> 100 µM (inactive),,> 100 µM (inactive),30.6 µM (inactive),,77.6 µM (inactive),3.61 µM (inactive),3.06 µM (inactive),,
CC(C)Oc1c(C2(c3ccccc3)SCCCS2)c(=O)c1=O,> 100 µM (inactive),> 100 µM (inactive),,> 100 µM (inactive),> 100 µM (inactive),> 100 µM (inactive),> 100 µM (inactive),> 100 µM (inactive),> 100 µM (inactive),,> 100 µM (inactive),> 100 µM (inactive),,> 100 µM (inactive),,> 100 µM (inactive),> 100 µM (inactive),> 100 µM (inactive),> 100 µM (inactive),> 100 µM (inactive)
CCCC(=O)/C=C/S/C=C/C(=O)CCC,3.72 µM (inactive),3.18 µM (inactive),,11.5 µM (inactive),10.7 µM (inactive),3.96 µM (inactive),1.65 µM (inactive),4.9 µM (inactive),2.65 µM (inactive),,2.84 µM (inactive),3.41 µM (inactive),7.28 µM (inactive),,,28.3 µM (inactive),,12.2 µM (inactive),21.8 µM (inactive),28.2 µM (inactive)
Cc1ccc2nc(NC(=O)C(=O)C3C(=O)NC(=S)NC3=O)sc2c1,> 100 µM (inactive),> 100 µM (inactive),,,> 100 µM (inactive),> 100 µM (inactive),> 100 µM (inactive),43.6 µM (inactive),> 100 µM (inactive),> 100 µM (inactive),> 100 µM (inactive),> 100 µM (inactive),55.6 µM (inactive),> 100 µM (inactive),> 100 µM (inactive),> 100 µM (inactive),> 100 µM (inactive),> 100 µM (inactive),> 100 µM (inactive),> 100 µM (inactive)
COc1ccc(N[S+]([O-])CCCc2ccccc2)cc1 (stereo not drawn),> 100 µM (inactive),58.1 µM (inactive),75.5 µM (inactive),> 100 µM (inactive),> 100 µM (inactive),> 100 µM (inactive),> 100 µM (inactive),,> 100 µM (inactive),70 µM (inactive),> 100 µM (inactive),> 100 µM (inactive),> 100 µM (inactive),> 100 µM (inactive),,65 µM (inactive),67.3 µM (inactive),44.9 µM (inactive),> 100 µM (inactive),81.1 µM (inactive)
N#Cc1c(-c2ccc([N+](=O)[O-])cc2)c(C#N)c(=O)n(NS(=O)(=O)c2ccccc2)c1S,65 µM (inactive),50.6 µM (inactive),30.2 µM (inactive),,20 µM (inactive),61.9 µM (inactive),19.4 µM (inactive),33 µM (inactive),33.2 µM (inactive),20.5 µM (inactive),,61 µM (inactive),48.1 µM (inactive),17.5 µM (inactive),40.6 µM (inactive),39.9 µM (inactive),,20.7 µM (inactive),44.2 µM (inactive),31.4 µM (inactive)
